Measured values: patent US6841533B1, “Conformationally constrained backbone cyclized interleukin-6 antagonists” (Peptor Limited, priority 1995, dated 2005)
Numbered stars: 1 amine (or outer) side, 2 acyl side, 3 side chain; on linkers, the order of the positions; unused ones are H or OH. Bridge positions count the residues as written; N and C are the ends. Square brackets hold non-standard residues; d marks the D form. Ends that are not written are not given here. Peptide text beside a SMILES is read from it. TrpN2 = Trp building unit for backbone cyclization, bridging arm N2; Ala(Nα-(CH2)3CO) = C[C@@H](C(=O)[*:2])N(CCCC(=O)[*:3])[*:1]; Ala(Nα-(CH2)3NH) = C[C@@H](C(=O)[*:2])N(CCCN[*:3])[*:1]; Phe(4-NO2) = N[C@@H](Cc1ccc([N+](=O)[O-])cc1)C(=O)O; 4Pal = N[C@@H](Cc1ccncc1)C(=O)O; LysC3 = not defined here; Orn = NCCC[C@H](N)C(=O)O

Tests used:
[1] = test system: TF1 cells maintained with IL-6; assay: Bioassay using TF1 cells maintained with IL-6; type: cell-based, human; parameters: TF1: unit not given here; conditions: for TF1: MPS crude peptides, Table 6; for Inhibition of IL-6 activity (%), Experiment 24, WST, IL-6 / Inhibition of IL-6 activity (%), Experiment 24, 3H-T, IL-6: cells with IL-6; for Inhibition of IL-6 activity (%), Experiment 24, 3H-T, IL-6: Experiment 24, thymidine incorporation; for specificity of inhibition, IL-6 versus GM-CSF maintained TF1 cells: in words, Table 7 and FIG. 4
Excerpt: TF1 cells (human erythroleukemia) cells require IL-6 for growth and thus inhibition of IL-6 bioactivity results in cell death, similar to T1165 cells. The origin of all relevant molecules is human.
(§1) The problem associated with toxicity (false positive results), could be overcome in the TF1 based assay since these cells can be induced by additional cytokines which are unrelated to IL-6 (not using the gp130 signal transducer). It, is possible to induce the cells to grow with IL-6 and with additional cytokine e.g. GM-CSF. Specific inhibition of IL-6 bioactivity is therefore expected to register only in cells induced by IL-6 and not with GM-CSF. […] Assay procedure is based on the procedure described in Fourcin et al. (ibid). The amount of viable cells at the end of the assay is determined by staining the cells with WST reagent as well as by measuring thymidine corporation (^3H-T).
The libraries were screened for binding of soluble IL-6. The information obtained was used for synthesis of backbone cyclic peptides in MPS format. Analyses for biological activity were performed on the TF1 human cell line.
(§2) Since the endpoint of the bioassay used is cell death, there is a need to check the specificity of the killing action, and to examine whether the cell death is due to inhibition of the IL-6 signaling pathway. The peptide analogs were therefore analyzed for their ability to induce non-specific cell death when the same cells were maintained with GM-CSF (instead of IL-6) as growth factor.

[2] = test system: B16.F10.9 melanoma cells; conditions: for B16F10.9 active at: theoretical crude concentration, MPS peptides
Excerpt: The F10.9 sub-line of B16 (murine melanoma) expresses gp130 but not IL-6R. Addition of human IL-6 and human IL-6R, or a chimera of IL-6/IL-6R results in differentiation which is associated with growth arrest of the cells. Inhibition of IL-6 results in continued growth. Since the end point of this assay is cell growth rather than cell death, this assay system was used primarily in order to differentiate between suspected toxic effects observed on B9 or T1165 cells, and true inhibition of IL-6 activity.
Evaluation of the results in this assay is possible using two methods. One method uses vital dyes for monitoring cell growth. The second method comprises visual observation of the cell morphology and establishing a cut off point based on the following observations:
Cells which are not treated with IL-6 create a monolayer that covers almost all the surface area. Treatment with IL-6 causes growth arrest and a morphological change: the cells become very narrow and elongated as compared to the more spread out shape of the non-treated cells.
Peptides were added to B16.F10.9 melanoma cells in the presence of 200 ng/ml IL-6 and 125 ng/ml sIL-6R. Incubation for three days.

[3] = test system: TF1 cells maintained with GM-CSF; assay: Selectivity bioassay using TF1 cells maintained with GM-CSF; type: cell-based, human; conditions: for Inhibition (%), Experiment 24, 3H-T, GM-CSF: Experiment 24, thymidine incorporation
Excerpt: as §1, §2

IC50 in the B16F10.9 cell assay [2]	Compound	TF1 [1]	B16F10.9 active at [2]	Inhibition of IL-6 activity (%), Experiment 23, WST, a [1]	Inhibition of IL-6 activity (%), Experiment 23, WST, b [1]	Inhibition of IL-6 activity (%), Experiment 24, WST, IL-6 [1]	Inhibition of IL-6 activity (%), Experiment 24, 3H-T, IL-6 [1]	Inhibition (%), Experiment 24, WST, GM-CSF [3]	Inhibition (%), Experiment 24, 3H-T, GM-CSF [3]	specificity of inhibition, IL-6 versus GM-CSF maintained TF1 cells [1]	concentration that fully blocks IL-6 activity ([2]; 200 ng/ml IL-6 and 125 ng/ml sIL-6R, three days, FIG. 2)
–	CC(C)C[C@@H]1NC(=O)[C@H](C)N(C(=O)[C@@H](Cc2ccccc2)NC(=O)[C@@H](CCCNC(=N)N)NC(=O)[C@H](CCCCN)NC(=O)[C@H](CCCNC(=N)N)NC(=O)[C@H](N)CCCCN)CCCC(=O)NCCCN([C@@H](C)C(N)=O)C(=O)[C@H](Cc2ccc(O)cc2)NC(=O)[C@H](CCCNC(=N)N)NC1=O [(D)Lys-Arg-Lys-(D)Arg-(D)Phe-AlaC3-Leu-Arg-Tyr-AlaN3] (H-[dK]RK[dR][dF][Ala(Nα-(CH2)3CO)]LRY[Ala(Nα-(CH2)3NH)]-NH2; lactam 6-10)	13	62 µM	–	–	–	–	–	–	–	–
–	C[C@@H](C(N)=O)N1CCCNC(=O)CCCN(C(=O)[C@@H](Cc2ccccc2)NC(=O)[C@@H](CCCNC(=N)N)NC(=O)[C@H](CCCCN)NC(=O)[C@H](CCCNC(=N)N)NC(=O)[C@H](N)CCCCN)[C@@H](C)C(=O)N[C@@H](CCCCN)C(=O)N[C@@H](CCCNC(=N)N)C(=O)N[C@@H](Cc2ccc(O)cc2)C1=O [(D)Lys-Arg-Lys-(D)Arg-(D)Phe-AlaC3-Lys-Arg-Tyr-AlaN3] (H-[dK]RK[dR][dF][Ala(Nα-(CH2)3CO)]KRY[Ala(Nα-(CH2)3NH)]-NH2; lactam 6-10)	17	62 µM	–	–	–	–	–	–	–	–
–	CC(C)C[C@H]1NC(=O)[C@H](C)N(C(=O)[C@H](Cc2ccccc2)NC(=O)[C@@H](CCCNC(=N)N)NC(=O)[C@H](CCCCN)NC(=O)[C@H](CCCNC(=N)N)NC(=O)[C@H](N)CCCCN)CCCC(=O)NCCCN([C@@H](C)C(N)=O)C(=O)[C@H](Cc2ccc(O)cc2)NC(=O)[C@H](CCCNC(=N)N)NC1=O [(D)Lys-Arg-Lys-(D)Arg-Phe-AlaC3-(D)Leu-Arg-Tyr-AlaN3] (H-[dK]RK[dR]F[Ala(Nα-(CH2)3CO)][dL]RY[Ala(Nα-(CH2)3NH)]-NH2; lactam 6-10)	3	62 µM	–	–	–	–	–	–	–	–
–	CC(C)C[C@@H]1NC(=O)[C@H](C)N(C(=O)[C@@H](Cc2ccccc2)NC(=O)[C@H](CCCNC(=N)N)NC(=O)[C@H](CCCCN)NC(=O)[C@H](CCCNC(=N)N)NC(=O)[C@H](N)CCCCN)CCCC(=O)NCCCN([C@@H](C)C(N)=O)C(=O)[C@@H](Cc2ccc(O)cc2)NC(=O)[C@H](CCCNC(=N)N)NC1=O [(D)Lys-Arg-Lys-Arg-(D)Phe-AlaC3-Leu-Arg-(D)Tyr-AlaN3] (H-[dK]RKR[dF][Ala(Nα-(CH2)3CO)]LR[dY][Ala(Nα-(CH2)3NH)]-NH2; lactam 6-10)	23	62 µM	–	–	–	–	–	–	–	–
–	C[C@@H](C(N)=O)N1CCCNC(=O)CCCN(C(=O)[C@@H](Cc2ccccc2)NC(=O)[C@H](CCCNC(=N)N)NC(=O)[C@H](CCCCN)NC(=O)[C@H](CCCNC(=N)N)NC(=O)[C@H](N)CCCCN)[C@@H](C)C(=O)N[C@@H](CCCCN)C(=O)N[C@H](CCCNC(=N)N)C(=O)N[C@H](Cc2ccc(O)cc2)C1=O [(D)Lys-Arg-Lys-Arg-(D)Phe-AlaC3-Lys-(D)Arg-(D)Tyr-AlaN3] (H-[dK]RKR[dF][Ala(Nα-(CH2)3CO)]K[dR][dY][Ala(Nα-(CH2)3NH)]-NH2; lactam 6-10)	17	62 µM	–	–	–	–	–	–	–	–
around 20 μg/ml	CC(C)C[C@H](NC(=O)[C@H](CCCNC(=N)N)NC(=O)[C@@H](N)Cc1ccc(O)cc1)C(=O)N[C@@H](CCCNC(=N)N)C(=O)N[C@@H](Cc1ccccc1)C(=O)N1CCCC(=O)NCCCN([C@@H](C)C(=O)N[C@@H](C)C(=O)N[C@@H](CCC(=O)O)C(N)=O)C(=O)[C@H](Cc2ccc(O)cc2)NC(=O)[C@H](CCCNC(=N)N)NC(=O)[C@H](CC(C)C)NC(=O)[C@@H]1C [PTR 5037, Tyr-Arg-Leu-Arg-Phe-AlaC3-Leu-Arg-Tyr-AlaN3-Ala-Glu] (H-YRLRF[Ala(Nα-(CH2)3CO)]LRY[Ala(Nα-(CH2)3NH)]AE-NH2; lactam 6-10; N-terminus and C-terminus assumed)	–	–	–	–	–	–	–	–	–	–
–	(D)Bip-(D)LysC2-Lys-Lys(ZCl)-(D)TrpN2-Abu-NH2 [Peptide 88]	–	–	96%	98%	112%	114%	103%	115%	–	–
–	(D)Bip-(D)LysC3-4PyrAla-Orn-TrpN2-(p-NO2)Phe-NH2 [Peptide 41]	–	–	96%	100%	95%	101%	25%	−13%	clearly specific to the IL-6 pathway	–
–	(D)Bip-(D)LysC3-Orn-Lys-AsnN2-Arg-NH2 [Peptide 20]	–	–	37%	56%	49%	78%	−59%	−42%	–	–
–	(D)Bip-GlyC2-Dab-(D)Glu-(D)AlaN3-Abu-NH2 [Peptide 91]	–	–	98%	106%	123%	113%	45%	75%	–	–
–	(D)PheC2-(D)Bip-Arg-Lys-(D)TrpN2-Gln-NH2 [Peptide 81]	–	–	38%	46%	92%	93%	43%	27%	–	–
–	(D)PheC2-(D)Cit-Dpr-HomArg-(D)GlnN2-(D)Gln-NH2 [Peptide 17]	–	–	50%	44%	67%	80%	−23%	−30%	–	–
–	Dab-TrpC2-Dpr-Arg(MTR)-(D)AlaN3-Glu-NH2 [Peptide 83]	–	–	2%	4%	31%	51%	−5%	12%	–	–
–	Gln-GlyC2-(D)Dab-Arg(MTR)-TrpN2-Trp-NH2 [Peptide 61]	–	–	54%	58%	86%	58%	4%	−49%	–	–
–	Lys(ZCL)-AlaC2-Dab-(D)Glu-(D)AlaN3-(D)Trp-NH2 [Peptide 25]	–	–	54%	54%	77%	104%	−49%	26%	–	–
–	Lys(ZCL)-GlyC2-Dab-(D)Glu-(D)AlaN3-(D)Trp-NH2 [Peptide 57]	–	–	122%	114%	121%	114%	48%	102%	–	–
–	Lys-TrpC2-(D)Arg-Lys-TrpN3-Gln-NH2 [Peptide 34]	–	–	97%	108%	96%	106%	−27%	3%	clearly specific to the IL-6 pathway	–
–	LysC3-Lys-4PyrAla-Orn-TrpN2-(p-NO2)Phe-NH2 ([LysC3]K[4Pal][Orn][TrpN2][Phe(4-NO2)]-NH2; bridge 1-5; reading uncertain; also: backbone cyclization, places not given here, printed as LysC3-Lys-4PyrAla-Orn-TrpN2-(p-NO2)Phe-NH2) [Peptide 40]	–	–	42%	72%	43%	61%	−45%	−63%	–	–
–	LysC4-Lys-(D)Arg-Lys-TrpN3-Gln-NH2 [Peptide 33]	–	–	116%	119%	112%	113%	39%	70%	–	–
–	Trp-Arg-Lys-(D)Arg-Phe-AlaC3-Leu-Arg-Tyr-AlaN3-NH2 [PTR 5049]	–	–	–	–	–	–	–	–	–	not active
